Laboratory results taken from patent US20230317203A1, “SCREENING METHOD” (University of Leeds, priority 2022, published 2023).

What was measured:
BRISC BRCC45 mutants = assay: IQF DUB assay, BRISC BRCC45 mutants; assay type: biochemical, human; conditions: four BRCC45 residues mutated, FIG. 4B
Protocol: (§1) The four-subunit human BRISC (full-length (FL) and MERIT40ΔN, Abraxas2ΔC) complex was cloned using the MultiBac system and co-expressed in Spodoptera frugiperda (Sf9) insect cells^32. BRISC mutants were cloned into pFastBac vectors in the Bac-to-Bac system (ThermoFisher), baculoviruses generated in Sf9 cells and used for co-infection of Trichoplusia ni (Tni) cells. All BRISC complexes were purified as previously described^12,13.
(§2) BRISC complexes were tested for activity in DUB reaction buffer containing 50 mM HEPES-NaOH pH 7.0, 100 mM NaCl, 0.1 mg/mL BSA, 1 mM DTT, and 0.003% Brij-35. […] Inhibitors were assayed at concentrations up to 200 μM. […] DUB activity was measured using internally quenched fluorescent (IQF) K63-linked diUb (Lifesensors, catalogue number: DU6303) at 50 or 100 nM. Cleaved diUb was monitored by measuring fluorescence intensity (Ex. 540 nm, Em. 580 nm; dichroic mirror 560 nm). Fluorescence intensity was measured every minute for 30 minutes at 30° C. Fluorescence intensity units for the first 10 minutes were plotted against time to generate a linear reaction progress curve, where the initial velocity (v0) corresponds to the gradient of the curve. IC50 values were calculated using the GraphPad Prism (v8.0) built-in dose-response equation for inhibitor concentration vs. response (variable slope). […]

BRISC [1] = target: T1, BRISC (Homo sapiens, UniProt P46736+Q15018+Q9NXR7); assay: IQF K63-linked diUb DUB activity assay, BRISC; assay type: biochemical; design: made in house; host or cells: Spodoptera frugiperda (Sf9) insect cells; conditions: IQF assay, fluorescent di-ubiquitin substrate, FIG. 1F
Protocol: BRISC complexes were tested for activity in DUB reaction buffer containing 50 mM HEPES-NaOH pH 7.0, 100 mM NaCl, 0.1 mg/mL BSA, 1 mM DTT, and 0.003% Brij-35. […] Inhibitors were assayed at concentrations up to 200 μM. 20 μL enzyme reactions were carried out in 384-well black flat-bottom low flange plates (Corning; 35373). DUB activity was measured using internally quenched fluorescent (IQF) K63-linked diUb (Lifesensors, catalogue number: DU6303) at 50 or 100 nM. Cleaved diUb was monitored by measuring fluorescence intensity (Ex. 540 nm, Em. 580 nm; dichroic mirror 560 nm). Fluorescence intensity was measured every minute for 30 minutes at 30° C. Fluorescence intensity units for the first 10 minutes were plotted against time to generate a linear reaction progress curve, where the initial velocity (v0) corresponds to the gradient of the curve. IC50 values were calculated using the GraphPad Prism (v8.0) built-in dose-response equation for inhibitor concentration vs. response (variable slope).
A high throughput biochemical screen was designed to identify inhibitors of BRISC, based on the ability of small molecules to inhibit BRISC cleavage of a K63-linked di-ubiquitin substrate. The di-ubiquitin substrate is designed with a fluorescent TAMRA dye on the proximal ubiquitin moiety and fluorescence quencher on the distal ubiquitin molecule (FIG. 1A). Upon isopeptidase bond cleavage, fluorescence is detected, enabling continuous fluorescent readout of deubiquitylase activity over time (FIG. 1A). The assay conditions were optimised and used to test an in-house compound library comprising of ˜300 published and custom-made kinase inhibitors. From this screen, two hits were identified, compounds AT7519 (well H20) and YM201636 (well P12) (FIG. 1B). The specificity of these compounds was assessed against the broad-spectrum DUB ubiquitin-specific protease-2 (USP2) and the serine protease trypsin which cleave K63-Ub substrate under the same conditions. […] UV-Vis spectroscopy analyses of the compound in well H20 used in the screen compared to the Synkinase and Sellechem AT7519 compounds identified an additional peak in the H20 spectra (FIG. 5C). […] The synthesis of the two isomers was confirmed using mass spectrometry fragmentation analyses (FIG. 5E) and the inhibitory effect of the isomers was tested against BRISC.

BRISC BRCC36 Leu169Ala = BRISC BRCC36 Leu169Ala (Homo sapiens, UniProt P46736+Q15018+Q9NXR7, L169A); assay: IQF DUB assay, BRISC mutant BRCC36 Leu169Ala; assay type: biochemical; conditions: FIG. 4B
Protocol: as §1, §2

BRISC BRCC36 Trp130Ala = BRISC BRCC36 Trp130Ala (Homo sapiens, UniProt P46736+Q15018+Q9NXR7, W130A); assay: IQF DUB assay, BRISC mutant BRCC36 Trp130Ala; assay type: biochemical; conditions: FIG. 4B
Protocol: as §1, §2

BRISC Abraxas2 Ile133Trp = BRISC Abraxas2 Ile133Trp (Homo sapiens, UniProt P46736+Q15018+Q9NXR7, I133W); assay: IQF DUB assay, BRISC mutant Abraxas2 Ile133Trp; assay type: biochemical; conditions: FIG. 4B
Protocol: as §1, §2

BRISC [2] = assay: Mass photometry of BRISC oligomeric state; assay type: binding, human; conditions: mass photometry
Protocol: (§3) Microscope coverslips were prepared as previously described^33. All mass photometry experiments were performed using a One^MP mass photometer (Refeyn Ltd, Oxford, UK). For preliminary BRISC-inhibitor measurements, 1 μM BRISC(FL) was mixed with either DMSO or inhibitor at 330 μM and incubated for 15 minutes on ice. Prior to MP measurement, the BRISC-inhibitor mix was diluted in gel filtration buffer (25 mM HEPES, 150 mM NaCl, 1 mM TCEP) for a final concentration of BRISC at 10 nM (0.05% DMSO). 12 μL of this dilution was used for the final MP measurement, following autofocus stabilisation. […] The BRISC-inhibitor mix was used directly for MP measurement using buffer-free autofocus stabilisation. Movies were recorded for 60 seconds using AcquireMP (Refeyn, UK), and were processed using DiscoverMP (Refeyn, UK). Mass photometry image processing has been previously described^33. Briefly, contrast-to-mass (C2M) calibration was performed using protein standards (66-669 kDa) diluted in gel filtration buffer. […] The mass distribution from each run is in a histogram, where count refers to each landing event and a Gaussian sum is fitted to the data. The relative amount of each species is calculated as the area of each Gaussian, where a refers to the standard deviation of the fitted Gaussian. […] Curves were fitted and EC50 values were calculated using the GraphPad Prism (v8.0) built-in dose-response equation for concentration of agonist vs. response (variable slope).

BRISC [3] = target: T1, BRISC; assay: Mass photometry of BRISC oligomeric state; assay type: binding; conditions: purified BRISC mixed with inhibitor, FIG. 2B
Protocol: as §3

BRISC [4] = target: T1, BRISC; assay: BRISC-mediated tetraubiquitin chain cleavage by Western blotting; assay type: biochemical; design: made in house; host or cells: Spodoptera frugiperda (Sf9) insect cells; conditions: K63-linked Ub4, Western blot, FIG. 6B
Source text: The potency of these analogues was characterised in the IQF assay with a fluorescent di-ubiquitin substrate. […] We confirmed the ability of these inhibitors to block BRISC-mediated tetraubiquitin chain cleavage by Western blotting (FIG. 6B).

- IC50 compared to JMS-175-2 (BRISC [1]): slightly improved
- inhibitor sensitivity of mutant (BRISC BRCC36 Leu169Ala): severely affected
- inhibitor sensitivity of mutant (BRISC BRCC36 Trp130Ala): severely affected
- inhibitor sensitivity of mutant (BRISC Abraxas2 Ile133Trp): no effect on inhibitor sensitivity
- mass photometry counts, 1:1:1:1 complex (BRISC [3]): 13%
- mass photometry counts, dimer (BRISC [3]): 52%
- inhibition of tetraubiquitin chain cleavage (BRISC [4]): Dose-dependent inhibition
Structure (SMILES): O=C(NC1C2CNCC21)c1nn(C(=O)c2c(Cl)cccc2Cl)cc1NC(=O)c1c(Cl)cccc1Cl (stereo not drawn) [FX-171-C]
- ability to recognise the inhibitor (BRISC BRCC45 mutants): reduced
- dimer formation at increasing inhibitor concentration (BRISC [2]): dose-dependent increase in dimer formation
